In article PMC7221793, “Metabolism and Pharmacokinetics of SP-8356, a Novel (1S)-(−)-Verbenone Derivative, in Rats and Dogs and Its Implications in Humans” (Molecules, 2020):
Where two headings read alike, the source gives them in different places.

What was measured:
[1] = In vivo metabolite identification, pooled rat plasma (Q-TOF LC-MS/MS); details: i.v. SP-8356 20 mg/kg
Procedure: (§1) Plasma samples from the i.v. administrations described in Section 4.2 and Section 4.3 were used in this study. Plasma samples pooled at each time point were subjected to sample preparation as described in Section 4.2. The prepared samples were analyzed by Agilent 6530 Q-TOF LC-MS/MS system equipped with dual AJS ESI ion source and Agilent 1200 series HPLC system as described below.
(§2) Chromatographic separation was achieved on an Agilent Eclipse C18 column (2.1 mm × 100 mm, 3.5 µm) by a gradient elution with a mobile phase consisting of 0.1 vol.% formic acid in water (A) and 0.1 vol.% formic acid in acetonitrile (B) at 50 °C: starting with 5 vol.% B for 2 min, ramping to 95 vol.% B over 1 min, maintaining for 3 min. The mobile phase flow rate was kept at 0.45 mL/min throughout the run. The sample injection volume was 5 µL. Ion source parameters were set as follows: capillary voltage, 3500 V; drying gas, 12 L/min and 300 °C; nebulizer gas, 30 psi; sheath gas, 12 L/min and 300 °C. Mass spectra were acquired in negative ion auto MS/MS mode (F, 135 V; CE, 25 eV) with full scan range of m/z (100–1000) and mass scan rate of 8 spectra/s. Metabolites were identified using Agilent MassHunter Metabolite ID software (version B.04.00) (Santa Clara, CA, USA). Chromatograms and mass spectra of the parent and identified metabolites were extracted using Agilent MassHunter Qualitative Analysis software (version B.05.00) (Santa Clara, CA, USA).

[2] = In vivo metabolite identification, pooled dog plasma (Q-TOF LC-MS/MS); details: i.v. SP-8356 50 mg/kg
Procedure: as §1, §2

[3] = In vivo metabolite identification, pooled rat urine; details: rat pooled urine 0–24 h, single i.v. dose of SP-8356
Procedure: Rat urine samples were collected from the animal studies approved by the IACUC of Korea University (Approval No.: KUIACUC-2017-124; Approval date: Jul. 29, 2017). SP-8356 dissolved in DMA/Cremophor EL/saline (5/10/85 vol.%) was dosed i.v. at 10 mg/kg (n = 5/dose group) to male SD rats (8 weeks old; (255–275) g; Koatech Inc., Gyeonggi, Republic of Korea) housed individually in metabolic cages. Urine samples were collected for ((0–4), (4–8) and (8–24)) h. Pooled urine samples were mixed with equal volume of acetonitrile containing HSDH (1 μg/mL) as IS, followed by filtration with a syringeless filter device (Mini-UniPrep™, PTFE filter media with polypropylene housing, 0.45 µm). The filtrate was analyzed by Agilent 6530 Q-TOF LC-MS/MS system equipped with dual AJS ESI ion source and Agilent 1200 series HPLC system, as follows.
Chromatographic separation was achieved on an Agilent Eclipse C18 column (2.1 mm × 100 mm, 3.5 µm) by a gradient elution with a mobile phase consisting of 0.1 vol.% formic acid in water (A) and 0.1 vol.% formic acid in acetonitrile (B) at 50 °C: starting with 5 vol.% B for 2 min, ramping to 95 vol.% B over 1 min, maintaining for 3 min. The mobile phase flow rate was kept at 0.45 mL/min throughout the run. The sample injection volume was 5 µL. […]

[4] = Bioactivation studies in rat liver S9 fraction; type: in vitro ADME; details: rat liver S9 1 mg/mL; for remaining at 1 h, 5 µM: Sprague-Dawley, rat, liver S9 fraction, read-out: SP-8356 (% Remaining at 60 min)
Procedure: SP-8356 was incubated with 1 mg/mL rat liver S9 fraction in 0.1 M potassium phosphate buffer (pH 7.4) in the absence and presence of GSH, AA, NADPH, UDPGA, PAPS and SAM. The final reaction mixture contained 5 µM SP-8356, 8 mM MgCl2, 25 µg/mL alamethicin and 1 mM cofactor in final volume of 160 µL. The reaction was initiated by adding a 10 mM cofactor solution prepared in 0.1 M potassium phosphate buffer (pH 7.4), following a 5 min preincubation of the incubation mixture at 37 °C. The final study groups were as follows: no cofactor (control), AA, NADPH, GSH, GSH + AA, GSH + NADPH and GSH + UDPGA + PAPS + SAM. The reaction was quenched at (0 and 60) min by adding 160 µL of ice-cold acetonitrile containing HSDH (1 µg/mL). Following a brief vortexing and sonication, the mixtures were centrifuged at 3,000 rpm at 4 °C for 20 min. The supernatant mixed with the same volume of deionized water on an Agilent 96-well plate was analyzed by Agilent 6530 Q-TOF LC-MS/MS system equipped with dual AJS ESI ion source and Agilent 1200 series HPLC system, as follows.
Chromatographic separation was performed on a Phenomenex Kinetex C18 column (50 mm × 2.1 mm, 2.6 µm) (USA) with 0.1 vol.% formic acid in deionized water (A) and 0.1 vol.% formic acid in acetonitrile (B) running at 0.45 mL/min in the following gradient elution: 2 vol.% B for the initial 2 min, linear gradient to 95 vol.% B for 1 min and maintaining 95 vol.% B for 5 min. The injection volume was 5 μL and the column temperature was set at 50 °C. The ion source and mass analyzer parameters of the mass spectrometer were the same as in Section 4.4. LC-MS chromatograms and mass spectra were extracted using Agilent MassHunter Qualitative Analysis software (version B.05.00) (Santa Clara, CA, USA).

[5] = set-up: method as in PMID 31036845; details: mice, intraperitoneal administration ref 10; cited from earlier work
[6] = % versus total AUClast of parent and all detected metabolites
[7] = AR = peak area ratio versus internal standard

Structure (SMILES): COc1cc(/C=C/C2=CC(=O)[C@H]3C[C@@H]2C3(C)C)cc(O)c1O [SP-8356, (1S,5R)-4-((E)-3,4-dihydroxy-5-methoxystryryl)-6,6-dimethylbicylco[3.1.1]hept-3-en-2-one]
- AUClast (%) [1, 6]: 26.48%
- AUClast (AR∙h) × 10^2 [1, 7]: 36.22 (AR∙h) × 10^2
- AUClast (%) [2, 6]: 17.66%
- AUClast (AR∙h) × 10^2 [2, 7]: 698.5 (AR∙h) × 10^2
- relative peak size (AR) in urine, in total [3]: almost insignificant
- remaining at 1 h, 5 µM ([4]; pH 7.4, cofactors: AA (1 mM)): 106 ± 2.6%
- remaining at 1 h, 5 µM ([4]; pH 7.4, cofactors: GSH (1 mM)): 29.1 ± 6.9%
- remaining at 1 h, 5 µM ([4]; pH 7.4, cofactors: GSH + AA): 92.1 ± 1.7%
- remaining at 1 h, 5 µM ([4]; pH 7.4, cofactors: GSH + NADPH): 18 ± 1.9%
- remaining at 1 h, 5 µM ([4]; pH 7.4, cofactors: GSH + UDPGA + PAPS + SAM): 1.3 ± 0.2%
- remaining at 1 h, 5 µM ([4]; pH 7.4, cofactors: NADPH (1 mM)): 21.6 ± 2%
- remaining at 1 h, 5 µM ([4]; pH 7.4, cofactors: None): ~20%
- SP-8356 (% Remaining at 60 min) ([4]; cofactors: None, 5 μM): 20.3 ± 1.9%
- plasma exposure [5]: Low plasma exposure
